Patent publication US6569451B1, “Targeted polymerized liposome diagnostic and treatment agents” (Targesome, Inc., priority 1994, dated 2003)

Experiments:
[1] = Magnetic resonance relaxivity (R1, R2) of paramagnetic polymerized liposomes; assay type: physicochemical
Text: We have constructed paramagnetic polymerized liposomes using the above techniques with 2.5 to 100 mol % of the gadolinium chelated diamide shown in FIG. 4, with the polyethylene glycol linker m=1 and m=2, and sizes ranging from 30 nm to 200 nm in diameter. We have determined the maximum T1 relaxivity, showing the best contrast, is obtained with 15% gadolinium chelated diamide and 85% DAPC with m=2 and having 200 nm particle size. High relaxivity is also observed with 30% gadolinium chelated diamide and 70% PDA with m=1 and having a variable particle size of about 10 to about 200 nm.
Similar measurements were made using PDA liposomes as the matrix lipid and the gadolinium chelated diamide (m=1).

[2] = rat, in vivo; cited from earlier work

O=C([O-])CN(CCN(CC(=O)[O-])CC(=O)O)CCN(CC(=O)[O-])CC(=O)O.[Gd+3] [Gd (DTPA), gadolinium diethylenetriaminepentaacetic acid]
molar relaxivity per Gd^+3 ion [1]: 4.2 mM⁻¹ s⁻¹
R1 ([1]; DAPC matrix lipid, gadolinium-diamide %, linker m and size as in label): 4.4 s⁻¹ mM⁻¹
elimination from the blood pool [2]: within a few minutes
